Reference: patent US20240092835A1, “NOVEL PEPTIDES CAPABLE OF ALTERING NK CELL ACTIVITY” (Massachusetts Institute of Technology, priority 2022, published 2024)
“Also recorded” adds a separate entry of the source. Where no end group is shown, it is not given here.

Legend:
[1] = tested on: NKG2A+/NKG2C− NK cells; experiment: NK cell activation markers in NKG2A+/NKG2C- NK cells incubated with peptide and K562 expressing HLA-E (inhibition); format: cell-based, human; conditions: for effect on NKG2A+/NKG2C− NK cell inhibition (in words): K562 expressing HLA-E, CD107a, IFNG, TNF, CCL3; for percentage of CCL3+ NK cells / percentage of CD107a+ NK cells / percentage of IFNG+ NK cells / percentage of TNF+ NK cells: NKG2A+/NKG2C- NK cells, K562/HLA-E
Method in brief: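 Percent-positive cells for NK activation surface markers were measured after NK cells met peptide-treated K562 cells expressing HLA-E. A decrease in that fraction was scored as inhibition and an increase as activation; NKG2A−/NKG2C− cells served as controls.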

[2] = molecular target: CD94/NKG2A (Homo sapiens, UniProt P26715+Q13241); experiment: Steady-state surface plasmon resonance of peptide-HLA-E complex with CD94/NKG2A; format: binding; conditions: for Binding of peptide-HLA-E complexes to CD94/NKG2A normalized to a theoretical Rmax: steady-state SPR
Method: (§1) Binding affinity of novel peptides linked to HLA-E was determined using surface plasmon resonance (SPR), a methodology used to study protein-protein interactions (Tables 15-19). The peptide-HLA-E complex (generated as a single chain trimer) was immobilized on the sensor chip surface and CD94/NKG2A or CD94/NKG2C were flowed over. Steady-state surface plasmon resonance experiments were performed with a Biacore T200 instrument. CD94/NKG2x in HBS-EP+ buffer was injected as analyte in a concentration range of 0.1 μM to 102.4 μM and flow rate of 10 μL/min at 25° C. Data was fit with Prism 9.4 (GraphPad Software Inc; San Diego CA) to a “one site, specific binding” model. Series S CM5 chips were coupled to neutravidin and utilized. Biotinylated pMHC was immobilized at approximately 400 RU. KD values calculated by Biacore software are reported. Rmax, fit values were calculated by Biacore software. Rmax, theoretical values were calculated using the analyte/ligand mass ratio (0.66) multiplied by the amount of ligand coupled to the chip.

[3] = molecular target: CD94/NKG2C (Homo sapiens, UniProt P26717+Q13241); experiment: Steady-state surface plasmon resonance of peptide-HLA-E complex with CD94/NKG2C; format: binding; conditions: for Binding of peptide-HLA-E complexes to CD94/NKG2C normalized to a theoretical Rmax: steady-state SPR
Method: as §1

[4] = molecular target: T1, HLA-E (Homo sapiens, UniProt P13747); experiment: HLA-E surface stabilization assay with RMA-S/HLA-E cells; format: cell-based; conditions: 30 μM peptide, 16 hours; for HLA-E surface expression stability (GeoMFI): anti-HLA-E antibody
T1 construct: expressed in transfected cells; host or cells: RMA-S/HLA-E cells (antigen processing-defective lymphoma cell line)
Method: HLA-E surface expression was assessed by measuring geometric mean fluorescence intensity (GeoMFI) in RMA-S cells following immunofluorescence staining with an anti-HLA-E antibody (Table 14). Increased GeoMFI was indicative of increased HLA-E surface expression stability following novel peptide exposures (FIG. 3).

CD94/NKG2A, sequence (P26715 94-233 limits assumed): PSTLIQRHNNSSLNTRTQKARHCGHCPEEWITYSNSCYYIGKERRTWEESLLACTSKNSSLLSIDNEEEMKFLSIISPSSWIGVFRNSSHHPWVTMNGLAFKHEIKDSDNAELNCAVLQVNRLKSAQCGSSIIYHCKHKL
CD94/NKG2A, sequence (Q13241 32-179 limits assumed): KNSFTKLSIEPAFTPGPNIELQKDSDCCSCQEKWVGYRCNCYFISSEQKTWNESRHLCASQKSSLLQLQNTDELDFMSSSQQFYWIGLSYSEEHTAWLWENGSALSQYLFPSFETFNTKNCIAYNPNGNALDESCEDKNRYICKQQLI
CD94/NKG2C, sequence (P26717 94-231 limits assumed): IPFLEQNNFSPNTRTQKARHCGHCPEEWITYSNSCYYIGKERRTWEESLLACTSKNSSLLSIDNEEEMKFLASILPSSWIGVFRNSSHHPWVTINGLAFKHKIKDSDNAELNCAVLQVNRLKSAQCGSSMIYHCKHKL
CD94/NKG2C, sequence (Q13241 32-179 limits assumed): as the sequence (Q13241 32-179 limits assumed) above
T1 sequence (P13747 22-358): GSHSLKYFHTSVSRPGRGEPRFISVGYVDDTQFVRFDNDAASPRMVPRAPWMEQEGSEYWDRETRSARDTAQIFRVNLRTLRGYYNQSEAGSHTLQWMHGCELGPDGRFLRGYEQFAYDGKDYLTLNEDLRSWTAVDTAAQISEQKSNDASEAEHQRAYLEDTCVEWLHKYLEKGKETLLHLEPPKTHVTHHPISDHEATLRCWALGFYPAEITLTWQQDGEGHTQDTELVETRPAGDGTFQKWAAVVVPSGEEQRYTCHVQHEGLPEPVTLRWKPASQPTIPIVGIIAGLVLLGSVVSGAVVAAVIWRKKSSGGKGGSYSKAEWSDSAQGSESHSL
T1 sequence (P61769 21-119 partner): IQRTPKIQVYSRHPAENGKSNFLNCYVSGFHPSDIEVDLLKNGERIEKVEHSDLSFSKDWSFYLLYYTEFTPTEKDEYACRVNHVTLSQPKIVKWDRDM

In the case of QMPSRSLLF [human1, QMPSRSLLF], the “effect on NKG2A+/NKG2C− NK cell inhibition (in words)” value ([1]; listed as SEQ ID NO. 7) is reported as “mild inhibitory effects”, the “effect on NKG2A+/NKG2C− NK cell inhibition (in words)” value ([1]; listed as h1) is reported as “mild inhibitory effects; also recorded: strong inhibitory” and the “percentage of CCL3+ NK cells” value ([1]; Trial 1) is reported as 31.8%. For the same sequence, the “percentage of CD107a+ NK cells” value ([1]; Trial 1) was 15.3%, the “percentage of IFNG+ NK cells” value ([1]; Trial 1) was 4.26% and the “percentage of TNF+ NK cells” value ([1]; Trial 1) was 1.66%. For the same sequence, the “percentage of CCL3+ NK cells” value ([1]; Trial 2) was 47%, the “percentage of CD107a+ NK cells” value ([1]; Trial 2) was 25.7% and the “percentage of IFNG+ NK cells” value ([1]; Trial 2) was 9.68%. For the same sequence, the “percentage of TNF+ NK cells” value ([1]; Trial 2) was 3.94%, the “percentage of CCL3+ NK cells” value ([1]; Trial 3) was 28.8% and the “percentage of CD107a+ NK cells” value ([1]; Trial 3) was 28.5%. The “percentage of IFNG+ NK cells” value ([1]; Trial 3) was 15.5%, the “percentage of TNF+ NK cells” value ([1]; Trial 3) was 9.23% and the “percentage of CCL3+ NK cells” value ([1]; Trial 4) was 14.2%. The “percentage of CD107a+ NK cells” value ([1]; Trial 4) was 14.6%, the “percentage of IFNG+ NK cells” value ([1]; Trial 4) was 3.06% and the “percentage of TNF+ NK cells” value ([1]; Trial 4) was 2.61%. For the same sequence, the “percentage of CCL3+ NK cells” value ([1]; Trial 5) was 25.5%, the “percentage of CD107a+ NK cells” value ([1]; Trial 5) was 9.4% and the “percentage of IFNG+ NK cells” value ([1]; Trial 5) was 2.48%. The “percentage of TNF+ NK cells” value ([1]; Trial 5) was 1.56%, the “percentage of CCL3+ NK cells” value ([1]; Trial 6) was 16.6% and the “percentage of CD107a+ NK cells” value ([1]; Trial 6) was 13.3%. The “percentage of IFNG+ NK cells” value ([1]; Trial 6) was 2.26%, the “percentage of TNF+ NK cells” value ([1]; Trial 6) was 1.77% and the “binding of peptide-HLA-E complex to CD94/NKG2A normalized to a fitted Rmax” value ([2]; CD94/NKG2A concentration 0 μM) was −0.006. For the same sequence, the “binding of peptide-HLA-E complex to CD94/NKG2A normalized to a fitted Rmax” value ([2]; CD94/NKG2A concentration 0.1 μM) was 0.035, the “binding of peptide-HLA-E complex to CD94/NKG2A normalized to a fitted Rmax” value ([2]; CD94/NKG2A concentration 0.2 μM) was 0.068 and the “binding of peptide-HLA-E complex to CD94/NKG2A normalized to a fitted Rmax” value ([2]; CD94/NKG2A concentration 0.4 μM) was 0.128. The “binding of peptide-HLA-E complex to CD94/NKG2A normalized to a fitted Rmax” value ([2]; CD94/NKG2A concentration 0.8 μM) was 0.221, the “binding of peptide-HLA-E complex to CD94/NKG2A normalized to a fitted Rmax” value ([2]; CD94/NKG2A concentration 1.6 μM) was 0.349 and the “binding of peptide-HLA-E complex to CD94/NKG2A normalized to a fitted Rmax” value ([2]; CD94/NKG2A concentration 3.2 μM) was 0.506. The “binding of peptide-HLA-E complex to CD94/NKG2A normalized to a fitted Rmax” value ([2]; CD94/NKG2A concentration 6.4 μM) was 0.664, the “binding of peptide-HLA-E complex to CD94/NKG2A normalized to a fitted Rmax” value ([2]; CD94/NKG2A concentration 12.8 μM) was 0.798 and the “binding of peptide-HLA-E complex to CD94/NKG2A normalized to a fitted Rmax” value ([2]; CD94/NKG2A concentration 25.6 μM) was 0.896. The “binding of peptide-HLA-E complex to CD94/NKG2A normalized to a fitted Rmax” value ([2]; CD94/NKG2A concentration 51.2 μM) was 0.950, the “binding of peptide-HLA-E complex to CD94/NKG2A normalized to a fitted Rmax” value ([2]; CD94/NKG2A concentration 102.4 μM) was 0.996 and the “Binding of peptide-HLA-E complexes to CD94/NKG2A normalized to a theoretical Rmax” value ([2]; CD94/NKG2A analyte concentration 0.000 μM) was −0.005. The “Binding of peptide-HLA-E complexes to CD94/NKG2A normalized to a theoretical Rmax” value ([2]; CD94/NKG2A analyte concentration 0.100 μM) was 0.025, the “Binding of peptide-HLA-E complexes to CD94/NKG2A normalized to a theoretical Rmax” value ([2]; CD94/NKG2A analyte concentration 0.200 μM) was 0.049 and the “Binding of peptide-HLA-E complexes to CD94/NKG2A normalized to a theoretical Rmax” value ([2]; CD94/NKG2A analyte concentration 0.400 μM) was 0.093. The “Binding of peptide-HLA-E complexes to CD94/NKG2A normalized to a theoretical Rmax” value ([2]; CD94/NKG2A analyte concentration 0.800 μM) was 0.160, the “Binding of peptide-HLA-E complexes to CD94/NKG2A normalized to a theoretical Rmax” value ([2]; CD94/NKG2A analyte concentration 1.600 μM) was 0.252 and the “Binding of peptide-HLA-E complexes to CD94/NKG2A normalized to a theoretical Rmax” value ([2]; CD94/NKG2A analyte concentration 3.200 μM) was 0.365. The “Binding of peptide-HLA-E complexes to CD94/NKG2A normalized to a theoretical Rmax” value ([2]; CD94/NKG2A analyte concentration 6.400 μM) was 0.479, the “Binding of peptide-HLA-E complexes to CD94/NKG2A normalized to a theoretical Rmax” value ([2]; CD94/NKG2A analyte concentration 12.800 μM) was 0.577 and the “Binding of peptide-HLA-E complexes to CD94/NKG2A normalized to a theoretical Rmax” value ([2]; CD94/NKG2A analyte concentration 25.600 μM) was 0.647. For the same sequence, the “Binding of peptide-HLA-E complexes to CD94/NKG2A normalized to a theoretical Rmax” value ([2]; CD94/NKG2A analyte concentration 51.200 μM) was 0.686, the “Binding of peptide-HLA-E complexes to CD94/NKG2A normalized to a theoretical Rmax” value ([2]; CD94/NKG2A analyte concentration 102.400 μM) was 0.719 and the “binding of peptide-HLA-E complex to CD94/NKG2C normalized to a fitted Rmax” value ([3]; CD94/NKG2C concentration 0 μM) was −0.007. The “binding of peptide-HLA-E complex to CD94/NKG2C normalized to a fitted Rmax” value ([3]; CD94/NKG2C concentration 0.1 μM) was 0.007, the “binding of peptide-HLA-E complex to CD94/NKG2C normalized to a fitted Rmax” value ([3]; CD94/NKG2C concentration 0.2 μM) was 0.017 and the “binding of peptide-HLA-E complex to CD94/NKG2C normalized to a fitted Rmax” value ([3]; CD94/NKG2C concentration 0.4 μM) was 0.038. For the same sequence, the “binding of peptide-HLA-E complex to CD94/NKG2C normalized to a fitted Rmax” value ([3]; CD94/NKG2C concentration 0.8 μM) was 0.076, the “binding of peptide-HLA-E complex to CD94/NKG2C normalized to a fitted Rmax” value ([3]; CD94/NKG2C concentration 1.6 μM) was 0.144 and the “binding of peptide-HLA-E complex to CD94/NKG2C normalized to a fitted Rmax” value ([3]; CD94/NKG2C concentration 3.2 μM) was 0.246. The “binding of peptide-HLA-E complex to CD94/NKG2C normalized to a fitted Rmax” value ([3]; CD94/NKG2C concentration 6.4 μM) was 0.394, the “binding of peptide-HLA-E complex to CD94/NKG2C normalized to a fitted Rmax” value ([3]; CD94/NKG2C concentration 12.8 μM) was 0.564 and the “binding of peptide-HLA-E complex to CD94/NKG2C normalized to a fitted Rmax” value ([3]; CD94/NKG2C concentration 25.6 μM) was 0.723. The “binding of peptide-HLA-E complex to CD94/NKG2C normalized to a fitted Rmax” value ([3]; CD94/NKG2C concentration 51.2 μM) was 0.832, the “binding of peptide-HLA-E complex to CD94/NKG2C normalized to a fitted Rmax” value ([3]; CD94/NKG2C concentration 102.4 μM) was 0.912 and the “Binding of peptide-HLA-E complexes to CD94/NKG2C normalized to a theoretical Rmax” value ([3]; CD94/NKG2C analyte concentration 0 μM) was −0.004. For the same sequence, the “Binding of peptide-HLA-E complexes to CD94/NKG2C normalized to a theoretical Rmax” value ([3]; CD94/NKG2C analyte concentration 0.1 μM) was 0.004, the “Binding of peptide-HLA-E complexes to CD94/NKG2C normalized to a theoretical Rmax” value ([3]; CD94/NKG2C analyte concentration 0.2 μM) was 0.010 and the “Binding of peptide-HLA-E complexes to CD94/NKG2C normalized to a theoretical Rmax” value ([3]; CD94/NKG2C analyte concentration 0.4 μM) was 0.023. The “Binding of peptide-HLA-E complexes to CD94/NKG2C normalized to a theoretical Rmax” value ([3]; CD94/NKG2C analyte concentration 0.8 μM) was 0.047, the “Binding of peptide-HLA-E complexes to CD94/NKG2C normalized to a theoretical Rmax” value ([3]; CD94/NKG2C analyte concentration 1.6 μM) was 0.088 and the “Binding of peptide-HLA-E complexes to CD94/NKG2C normalized to a theoretical Rmax” value ([3]; CD94/NKG2C analyte concentration 3.2 μM) was 0.151. The “Binding of peptide-HLA-E complexes to CD94/NKG2C normalized to a theoretical Rmax” value ([3]; CD94/NKG2C analyte concentration 6.4 μM) was 0.242, the “Binding of peptide-HLA-E complexes to CD94/NKG2C normalized to a theoretical Rmax” value ([3]; CD94/NKG2C analyte concentration 12.8 μM) was 0.346 and the “Binding of peptide-HLA-E complexes to CD94/NKG2C normalized to a theoretical Rmax” value ([3]; CD94/NKG2C analyte concentration 25.6 μM) was 0.444. The “Binding of peptide-HLA-E complexes to CD94/NKG2C normalized to a theoretical Rmax” value ([3]; CD94/NKG2C analyte concentration 51.2 μM) was 0.511, the “Binding of peptide-HLA-E complexes to CD94/NKG2C normalized to a theoretical Rmax” value ([3]; CD94/NKG2C analyte concentration 102.4 μM) was 0.560 and the “HLA-E surface expression stabilization strength (in words)” value [4] was “moderate”. For the same sequence, the “HLA-E surface expression stability (GeoMFI)” value ([4]; Trial 1) was 2461 GeoMFI, the “HLA-E surface expression stability (GeoMFI)” value ([4]; Trial 2) was 1755 GeoMFI and the “HLA-E surface expression stability (GeoMFI)” value ([4]; Trial 3) was 2273 GeoMFI. For the same sequence, the “HLA-E surface expression stability (GeoMFI)” value ([4]; Trial 4) was 2496 GeoMFI and the “HLA-E surface expression stabilization strength, approximate GeoMFI” value ([4]; approximate value) was “approximately 2×10^3 GeoMFI”.
